Test results as given in US7910579B2, “Benzoxazole derivatives” (Tohoku University, priority 2006, dated 2011).
Like-named read-outs stand apart in the source and are kept apart here.

Assays:
[1] = Acute Toxicity Test; type: in vivo; details: Crj:CD1 male mice, tail vein, observed for 7 days
Protocol: The compounds of the invention were tested for their acute toxicity through intravenous administration thereof to mice. Four Crj:CD1 male mice formed one test group, and some test groups of those mice were used (the mean body weight of the mice of each group was from 31 to 32 g). A test compound was dissolved in a mixture of 1 N HCl, polyethylene glycol-400 and distilled water, or dissolved in DMSO, and then diluted with distilled water. This was administered to each mouse via its tail vein.

[2] = Brain Permeability Test Through HPLC; type: in vivo; details: mice, 2 minutes after intravenous administration
Protocol: A compound of the invention was intravenously administered to mice, and tested for its in-vivo brain permeability in the mice.
(1) Slc:ICR mice (by Nippon SLC) (body weight, 30 to 40 g; n=3) were used.
(2) A test compound was dissolved in a mixture of 5% Tween 80-5% ethyl alcohol-5% 1 N HCl-physiological saline water, and injected into the test mouse via its tail vein. Two minutes after the administration, the blood was collected from the test mouse under ether anesthesia via its abdominal aorta using a heparin-steeped syringe, and the brain material was collected from it.
(3) After collected, the blood was centrifuged at 4° C. and 14,000 rpm for 10 minutes, and the supernatant was stored at −80° C. as plasma. After collected, the brain material (including the cerebellum) was stored at −80° C.
(4) 0.3 ml of acetonitrile was added to 0.1 ml of the plasma, then vortexed, and centrifuged at 4° C. and under 10,000 G for 5 minutes. After centrifuged, 0.2 ml of the resulting supernatant was transferred into Mini-Uniprep (Whatman), then 0.2 ml of 20 mM phosphate buffer was added to it and filtered. 0.2 ml of the resulting filtrate was analyzed through HPLC (Shiseido Nanospace SI-2; pump, 3001; UV-VIS detector, 3002; column thermostat, 3004; fluorescence detector, 3013).
(5) 2 ml of methanol was added to the brain, homogenized, and centrifuged at 4° C. and 3000 or 4000 rpm for 10 minutes. After centrifuged, 500 μl of the resulting supernatant was diluted 10-fold with 20 mM phosphate buffer. (i) 2 to 3 ml of acetonitrile, (ii) 2 to 5 ml of methanol and (iii) 4 to 6 ml of ultra-pure water were led through a cartridge for solid-phase extraction (J. T. Baker Speedisk) in that order, and the 10-fold diluted supernatant solution was led through it. Via an empty syringe, air was applied to the cartridge for solid-phase extraction, two or three times to remove water, and then this was eluted with about 500 μl of acetonitrile or methanol, and the eluate was diluted 2-fold with 20 mM phosphate buffer. 0.2 ml of the resulting solution was analyzed through HPLC.
(6) The test compound content in the plasma and in the brain was determined relative to the dose of the compound (% ID (injected dose)/g or ml).

[3] = system: histidine-requiring Salmonella typhimurium TA100 and TA98 strains; test: Mutagenicity Test (reverse mutation test); type: cell-based; details: for Relative Activity in the presence of S9Mix / Relative Activity in the absence of S9Mix: reverse mutation test
Protocol: In view of their use, it is desirable that the compounds of the invention have no mutagenicity or have little mutagenicity to a level causing no problem. For investigating the gene mutagenesis of the compounds of the invention, herein carried out was a reverse mutation test with histidine-requiring Salmonella typhimurium TA100 and TA98 strains. Two tests were carried out. One is a test for dose determination test; and the other is for mutagenicity.
The test methods and the mutagenicity of the compounds of the invention are mentioned below. In the dose determination test, six doses of 0.160, 0.800, 4.00, 20.0, 100 and 500 μg/plate (common ratio 5) were tried.
As a result of the dose determination test, when the mutagenicity of the test compound was admitted, then the actual test for mutagenicity was carried out, using the dose capable of giving an accurate dose-reaction curve. When no mutagenicity of the test compound was admitted in the dose determination test and when the growth inhibition of the test cells was admitted therein, then the dose to present the growth inhibition was taken as the maximum dose; and when the growth inhibition was not admitted, then a dose of 5000 μg/plate was taken as the maximum dose. With that, the actual test for mutagenicity was carried out on the level of 6 doses (common ratio 2).
First, a test compound was dissolved or suspended in DMSO, then diluted in order to prepare test compound liquids having a varying concentration.
100 μl of a test compound liquid or a negative control (DMSO) solution was put into a sterilized test tube. Then, for the case in the absence of a metabolic activation system (−S9mix), 500 μl of 0.1 mol/liter sodium-phosphate buffer (pH 7.4) was added to it; and for the case in the presence of a metabolic activation system (+S9mix), 500 μl of S9mix was added to it.
Next, 100 μl of the test strain suspension that had been cultivated with shaking at 37° C. for 8 hours was added to it, and preincubated in a shaking thermostat at 37° C. for 20 minutes. After shaken, 2 ml of top agar was added to it, and the contents were mixed.
Next, the mixture was poured onto a minimal glucose agar plate medium (plate) and spread uniformly thereon, then the top agar was solidified, and the plate was transferred into a thermostat and incubated at 37° C. for 48 hours.
Then, the number of the colonies grown through reverse mutation was counted.
For counting it, […]. After area correction and miss-counting correction, the number of the colonies was computed. When the colony analyzer could not be used owing to the deposition of the test compound or the cell growth inhibition, then the number of the colonies was counted with the naked eye.
In case where the number of the colonies through reverse mutation increased two times or more that of the negative control and where the dose dependency or the reproducibility of the increase was admitted, then the tested sample was decided as positive. When the sample was is decided as positive, then the relative activity that indicates the relative comparative value of the intensity of the mutagenicity of the test compound was obtained according to the following formula: Relative Activity={(number of colonies per plate having the concentration)−(number of colonies per negative control plate)}/the value of concentration (mg/plate).

[4] = molecular target: T1, Amyloid β protein 1-40 (Homo sapiens, UniProt P05067); test: Fluorescence Congo Red Method; type: binding; details: 1 h, compound 10 μM, amyloid β protein 5 μM
T1 construct: Amyloid β protein 1-40 (bought from Peptide Laboratory); purchased Peptide Laboratory
Protocol: Next described is a screening method for the compounds of the invention. Some of the compounds of the invention could not be screened according to a Thioflavin T method, since their fluorescence wavelength overlaps with that of Thioflavin T. For such compounds, the following novel screening method was introduced. (1) Amyloid β protein 1-40 (bought from Peptide Laboratory) was dissolved in a phosphate buffer (pH 7.4) and left at 37° C. for 4 days. (2) 50 μl of Congo red dissolved in the buffer was applied to a 96-well microplate (final concentration, 0.1, 0.3, 1 μM). (3) 100 μl of amyloid β protein was added to it (final concentration 5 μM), and left as such for 30 minutes. (4) 100 μl of a test compound dissolved in the buffer was added to it (final concentration, 10 μM, and left as such for 60 minutes. (5) Using a fluorescence microplate reader (Spectra Max 190 by Molecular Device), the sample was analyzed at the optimum exciting wavelength and the test wavelength that had been previously determined. (6) The fluorescence intensity in the presence of the test compound, amyloid β protein and Congo red is represented by A; that in the presence of the test compound and Congo red is by B; that in the presence of the test compound and amyloid β protein is by C; and that in the presence of only the test compound is by D. The β structure recognition of the test compound is computed according to the following formula: β structure recognition (%) of test compound={(A−B)/(C−D)}×100. (7) It may be said that the test compound having a higher β structure recognition percentage may have higher binding specificity to amyloid β protein.

[5] = system: histidine-requiring Salmonella typhimurium TA100 and TA98 strains; details: cited from earlier work
[6] = molecular target: T2, amyloid β protein in the brain section of an Alzheimer disease patient (Homo sapiens, UniProt P05067); test: Staining test on a brain section of an Alzheimer disease patient: amyloid β protein; type: binding
T2 construct: from tissue; host or cells: paraffin-embedded temporal lobe and hippocampus of Alzheimer disease patients
From the text: (§1) (1) Brain specimens at the temporal lobe and the hippocampus of patients to which a definitive diagnosis of Alzheimer disease had been given, and those of normal senile persons were used. The specimens were given by our coworker, Fukushimura Hospital, Longevity Medicine Institute, and we were given their consent of use of the specimens for our study purpose by the bereaved of the patients (Fukushimura Hospital Ethical Review Board Approval No. 20).
(§2) (2) The paraffin-embedded brain tissue was cut Into slices having a thickness of 6 μm or 8 μm, and extended and dried on a slide. The paraffin brain section was steeped for paraffin removal in xylene twice for 10 minutes, 100% ethanol twice for 5 minutes, 90% ethanol for 5 minutes and running water for 10 minutes in that order.
(§3) (3) For pretreatment prior to the staining treatment with a compound of the invention, the sections were steeped for autofluorescence removal with lipofuscin. First, the paraffin-removed sections were dipped in 0.25% KMnO4 solution for 20 minutes. These were washed with PBS, twice for 2 minutes, then dipped in 0.1% K2S2O5/oxalic acid solution for about 5 seconds, and then further washed with PBS, three times for 2 minutes.
(§4) (4) About 150 μl of a 100 μM solution of a compound of the invention dissolved in 50% ethanol was dropwise applied to the section and reacted for 10 minutes. After dipped five times in tap water, the section was entrapped with Fluor Save Reagent (Calbiochem), and analyzed through microscopy with a fluorescence microscope (Nikon, Eclipse 80i). The images were taken with a digital camera (Nikon Dxm 1200F or Photometrics' Cool SNAP ES).
(1) After paraffin removal, the sections were washed in distilled water, twice for 2 minutes. Then, using ImmunoPen, the tissue was marked with a surrounding line; about 150 μl of formic acid was dropwise applied to the section and statically left at room temperature for 5 minutes. The section was washed with tap water for 5 minutes, then dipped in cold PBS-Tween 20 for 2 minutes, and thereafter about 150 μl of 0.05% trypsin solution was dropwise applied to it and reacted at 37° C. for 15 minutes.
(2) In an ice bath, this was washed with cold PBS-Tween 20, twice for 5 minutes, and then 2 drops of blocking serum were applied to it and reacted at 37° C. for 30 minutes. Excess water was removed, and then about 150 μl of a specific antibody to amyloid β protein, 6F/3D (by DAKO, 1/50 dilution) was dropwise applied to it, and reacted at 37° C. for 1 hour.
(3) Further, this was washed with cold PBS-Tween 20, 5 times for 2 minutes, and then 2 drops of an anti-mouse IgG (H+L), goat, biotin-binding solution were applied to it and reacted at 37° C. for 1 hour. Then, this was washed with cold PBS-Tween 20, three times for 2 minutes, and 2 drops of an ABC solution (streptoavidin-biotin-peroxidase composite solution) were applied to it, and left statically as such for 30 minutes. Again this was washed with cold PBS-Tween 20, three times for 2 minutes, and then about 150 μl of a DAB solution (10 mg of DAB was dissolved in 20 ml of 0.05 mol/liter tris-HCl buffer, and just before use, 100 μl of 3% hydrogen peroxide water was added to it) was dropwise applied to it for sufficiently staining it. Then, this was washed with distilled water for 1 minute to stop the reaction, then entrapped and observed through microscopy.

[7] = system: neurofibrillary tangle in the brain section of an Alzheimer disease patient; test: Staining test on a brain section of an Alzheimer disease patient: neurofibrillary tangle; type: binding, human; details: 100 μM solution in 50% ethanol, 10 minutes, paraffin brain section
From the text: as §1, §2, §3
as §4, with “ES). […]” for “ES).”

[8] = Congo red 0.1 μM, read-out: Binding Percentage of Compound in the presence of 0.1 μM CR
[9] = Congo red 0.3 μM, read-out: Binding Percentage of Compound in the presence of 0.3 μM CR
[10] = Congo red 1 μM, read-out: Binding Percentage of Compound in the presence of 1 μM CR

T1 sequence (P05067 672-711): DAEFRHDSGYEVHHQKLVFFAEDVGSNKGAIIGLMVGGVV
T2 sequence (P05067 672-713 limits assumed): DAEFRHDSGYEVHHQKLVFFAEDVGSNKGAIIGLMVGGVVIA

SMILES	Maximum Permissible Dose (mg/kg, intravenous administration) [1]	Brain Permeability: Brain [2]	Brain Permeability: Plasma [2]	Relative Activity in the presence of S9Mix [3]	Relative Activity in the absence of S9Mix [3]	activity at 10 µM [4, 8] [%]	activity at 10 µM [4, 9] [%]	activity at 10 µM [4, 10] [%]	further results
CN1CCN(c2ncc(/C=C/c3nc4ccc(OC(CO)CF)cc4o3)s2)CC1 (centres unmarked) [THK-707, (E)-6-[(1-fluoromethyl-2-hydroxy)ethoxy]-2-[2-[2-(4-methylpiperazin-1-yl)thiazol-5-yl]ethenyl]benzoxazole]	≧10 mg/kg	4.4 % ID/g or ml	0.58 % ID/g or ml	minus	264	66.8	36.4	29.7	Relative activity (mutagenicity) ([3]; in the presence of S9mix): weak
CC(=C(C#N)C#N)c1ccc2cc(N(C)CCF)ccc2c1 [FDDNP]	–	–	–	–	–	–	–	–	Relative Activity in the absence of S9Mix [5]: 3,564,960; Relative Activity in the presence of S9Mix [5]: minus
CN(C)c1ccc(-c2cn3cc(I)ccc3n2)cc1 [IMPY]	–	–	–	–	–	–	–	–	Relative activity (mutagenicity) ([5]; in the presence of S9mix, literature compounds): extremely high; Relative Activity in the presence of S9Mix ([5]; reverse mutation test, +S9mix, data from PCT/JP03/07183 (WO03/106439)): minus; Relative Activity in the absence of S9Mix ([5]; reverse mutation test, -S9mix, data from PCT/JP03/07183 (WO03/106439)): 3,326,100
CN(C)c1ccc(-c2nnc(-c3sc4ccccc4c3Cl)o2)cc1 [THK-258, [4-[5-(3-chloro-benzo[b]thiophen-2-yl)-[1,3,4]oxadiazol-2-yl]-phenyl]-dimethylamine]	–	–	–	–	–	–	–	–	Binding to (staining of) amyloid β protein in the brain section of an Alzheimer disease patient ([6]; 100 μM solution in 50% ethanol, 10 minutes, paraffin brain section): bound to the amyloid β protein; Specificity to amyloid β ([6]; statement in the description of formulae (II) to (VI)): high specificity to amyloid β; Binding to (staining of) neurofibrillary tangle in the brain section of an Alzheimer disease patient [7]: bound to the amyloid β protein and the neurofibrillary tangle
OCC(CF)Oc1ccc2nc(/C=C/c3cnc(N4CCCCC4)s3)oc2c1 (centres unmarked) [THK-713]	≧10 mg/kg	5.9 % ID/g or ml	3.29 % ID/g or ml	minus	minus	58.2	21.2	3	Relative activity (mutagenicity) ([3]; irrespective of the absence or presence of S9mix): minus
